Assay results reported in patent publication US20210000953A1, “USE OF IMMUNE CHECKPOINT INHIBITORS IN CENTRAL NERVOUS SYSTEMS NEOPLASMS” (Bristol-Myers Squibb Company, priority 2014, published 2021).
Entries after “also recorded” stand apart in the source; their conditions may differ.

What was measured:
[1] = system: subjects with recurrent GBM; test: Study CA209143 safety lead-in cohorts (Cohort 1, 1b): safety, tolerability and patient disposition; type: in vivo, human
Protocol: This is the first study examining monoclonal antibodies targeting immune checkpoint inhibitors in subjects with recurrent GBM. To ensure that nivolumab monotherapy and nivolumab in combination with ipilimumab are tolerable, safety lead-in cohorts (Cohort 1, 1b) evaluating the tolerability of two different treatment regimens were initiated prior to advancing a treatment arm into Cohort 2. Cohort 1 examined in a randomized fashion the safety and tolerability of nivolumab monotherapy dosed at 3 mg/kg every 2 weeks or nivolumab 1 mg/kg+ipilimumab 3 mg/kg every 3 weeks for four doses, then nivolumab 3 mg/kg every 2 weeks thereafter. Cohort 1b examined, in a non-randomized fashion, the safety and tolerability of nivolumab 3 mg/kg+ipilimumab 1 mg/kg every 3 weeks for four doses, then nivolumab 3 mg/kg every 2 weeks thereafter.
A randomized, open-label, multicenter, phase 3 study of nivolumab monotherapy versus bevacizumab and a safety study of nivolumab and nivolumab in combination with ipilimumab is conducted in adult (>18 years) subjects with a first recurrence of GBM after treatment with radiotherapy and temozolomide. Since the use of nivolumab and ipilimumab has not previously been studied in subjects with GBM, a safety lead-in (Cohort 1) consisting of approximately 10 subjects in each of two treatment arms are enrolled and randomized to treatment with either Arm N (nivolumab monotherapy) or Arm N+I (nivolumab combined with ipilimumab). Tolerability and safety of a treatment arm is determined after all subjects in the arm completed four doses or discontinued dosing prior to completing four doses. A safety evaluation of Cohort 1 is conducted for each arm based on criteria described herein.
Subjects will be evaluated for safety if they have received any study drug. […]
The causal relationship to study drug is determined by a physician and should be used to assess all adverse events (AE). […]
Tolerability and safety of a treatment arm was determined after all subjects per arm have completed four doses or discontinued dosing prior to completing four doses. […]

[2] = system: TILs and PBMCs; test: Anti-tumor-associated antigen (TAA) activity, dual-color IFNγ/granzyme B FluoroSpot assay; type: cell-based, human; conditions: cells isolated from patients treated with nivolumab monotherapy (FIG. 17)
Protocol: Analyses were performed on peripheral blood drawn from patients at predetermined time points (FIG. 13) and tumor tissue samples were obtained if resection was performed at the time of progression or suspected progression. Baseline and on-treatment samples were obtained from patients (n=20) randomized 1:1 to receive either nivolumab 3 mg/kg every 2 weeks (Q2W) or nivolumab 1 mg/kg+ipilimumab 3 mg/kg every 3 weeks followed by nivolumab 3 mg/kg Q2W (FIG. 13). Phenotypic, maturation, and proliferation analyses were performed using flow cytometry with population-specific antibody panels (Table 11). Cytokine release analyses were carried out on supernatants from sorted Tregs (CD4+CD25+CD127−)±stimulation (PMA+ionomycin). The anti-tumor-associated antigen (TAA) activity of peripheral blood mononuclear cells (PBMCs) and tumor-infiltrating lymphocytes (TILs) was evaluated. Cells were stimulated with interleukin (IL)-2, IL-15, and TAA peptides; after 9 days of culture with IL-2 and IL-15, cells were restimulated with IL-2, IL-15, and TAA peptides. Production of interferon (IFN)γ/granzyme B was assayed using a dual-color FluoroSpot assay.

[3] = target: T1, PD-1 (Homo sapiens, UniProt Q15116); test: PD-1 receptor occupancy in subjects dosed with nivolumab; type: in vivo; conditions: 15 subjects, 0.3 mg/kg to 10 mg/kg, across all doses
T1 construct: Receptor-occupancy data from 15 subjects who received 0.3 mg/kg to 10 mg/kg dosing with nivolumab; endogenous in cells
T1 sequence (Q15116 25-288): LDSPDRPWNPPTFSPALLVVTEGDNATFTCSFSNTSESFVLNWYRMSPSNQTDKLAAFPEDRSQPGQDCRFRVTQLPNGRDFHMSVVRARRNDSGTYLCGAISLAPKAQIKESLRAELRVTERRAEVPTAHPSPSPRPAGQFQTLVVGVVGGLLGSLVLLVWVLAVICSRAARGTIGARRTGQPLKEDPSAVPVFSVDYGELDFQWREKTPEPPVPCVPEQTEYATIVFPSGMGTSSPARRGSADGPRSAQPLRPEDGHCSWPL
Protocol: When used in combinations with other anti-cancer agents, the dosage of an anti-PD-1 antibody can be lowered compared to the monotherapy dose. Dosages of nivolumab that are lower than the typical 3 mg/kg, but not less than 0.001 mg/kg, are subtherapeutic dosages. The subtherapeutic doses of an anti-PD-1 antibody used in the methods herein are higher than 0.001 mg/kg and lower than 3 mg/kg. In some embodiments, a subtherapeutic dose is about 0.001 mg/kg-about 1 mg/kg, about 0.01 mg/kg-about 1 mg/kg, about 0.1 mg/kg-about 1 mg/kg, or about 0.001 mg/kg-about 0.1 mg/kg body weight. In some embodiments, the subtherapeutic dose is at least about 0.001 mg/kg, at least about 0.005 mg/kg, at least about 0.01 mg/kg, at least about 0.05 mg/kg, at least about 0.1 mg/kg, at least about 0.5 mg/kg, or at least about 1.0 mg/kg body weight. Receptor-occupancy data from 15 subjects who received 0.3 mg/kg to 10 mg/kg dosing with nivolumab indicate that PD-1 occupancy appears to be dose-independent in this dose range. Across all doses, the mean occupancy rate was 85% (range, 70% to 97%), with a mean plateau occupancy of 72% (range, 59% to 81%). In some embodiments, 0.3 mg/kg dosing can allow for sufficient exposure to lead to maximal biologic activity.

[4] = Phase 1 study of nivolumab; cited from earlier work
[5] = in vivo; cited from earlier work

nivolumab
Patients in the study: Died ([1]; Cohort 1, N = 10 per arm, same regimens, deaths in both arms were due to disease, cutoff Sep. 9, 2015): 7 (70) n (%)
Deaths due to drug toxicity ([1]; Cohort 1, nivolumab 3 mg/kg monotherapy arm and nivolumab 1 mg/kg + ipilimumab 3 mg/kg combination arm, N = 10 each): no deaths due to drug toxicity
Reason for not continuing on treatment: Disease Progression ([1]; Cohort 1, recurrent GBM, N = 10 per arm, nivolumab 3 mg/kg Q2W or nivolumab 1 mg/kg + ipilimumab 3 mg/kg Q3W x4 then nivolumab 3 mg/kg Q2W, cutoff Sep. 9, 2015): 9 (90) n (%)
Anti-TAA activity of TILs and PBMCs upon restimulation [2]: increased anti-TAA activity; also recorded: functional responses to TAAs in both TILs and PBMCs
Mean plateau PD-1 occupancy ([3]; range 59% to 81%): 72%
Mean PD-1 occupancy rate ([3]; range 70% to 97%): 85%
Subjects with apparent progression of disease before objective response and/or stable disease [4]: approximately 10%
Terminal half life [5]: up to 25 days
